Laboratory results reported in US20240208954A1, “OXADIAZOLE COMPOUND, PREPARATION METHOD THEREFOR, PHARMACEUTICAL COMPOSITION AND USE THEREOF” (SHANGHAI INSTITUTE OF MATERIA MEDICA, CHINESE ACADEMY OF …, priority 2020, published 2024).
Where “and” joins values, the source holds several entries; their conditions need not be identical. Equal entries are not always repeated. Entries after “also recorded” stand apart in the source; their conditions may differ. Where two headings read alike, the source gives them in different places.

How the values were obtained:
[1] = Preliminary assessment of in vivo pharmacokinetics in rats; settings: for MRT inf: read-out: MRT0-∞
[2] = system: MCD-HFD induced NASH model; experiment: Pharmacological activity test in MCD-HFD induced NASH model; assay type: in vivo, C57BL/6 mice
Procedure: Male C57BL/6 mice were fed with MCD-HFD diet to induce the NASH model, and 4 weeks after modeling, the mice were randomly divided into […]: normal diet control group (Control, n=9), model control group (Model, n=10), positive compound BAF312 group (0.3 mg/kg, n=10), low dose group (0.3 mg/kg, n=10), medium dose group (3 mg/kg, n=10), and high dose group (10 mg/kg, n=10), administered by gavage in a volume of 5 mL/kg once a day. The animals were monitored for food intake and body weight during administration; 4 weeks after administration, the mice were sacrificed by dislocation after blood was taken via the posterior ophthalmic plexus, livers and spleens were weighed, part the liver was fixed in 4% paraformaldehyde, and all tissues and serum were stored at −80° C.

[3] = system: dextran sodium sulfate (DSS)-induced IBD model; experiment: Pharmacological activity test in DSS-induced IBD model; assay type: in vivo, mice
Procedure: The mice were randomly divided into […]: normal control group (Control,n=5), model control group (Model,n=11), positive compound BAF312 group (0.3 mg/kg,n=10), low dose group (0.03 mg/kg,n=10), medium dose group (0.3 mg/kg,n=10), high dose group (3 mg/kg, n=10), and each group was administered by gavage in a volume of 5 mL/kg once a day. DSS with an average molecular weight of 36000˜50000 Da was dissolved in drinking water to make 2% DSS solution, and the mice in the modeling group were allowed to drink it freely for 6 days, while the drug administration treatments were carried out simultaneously. The body weight, fecal hardness and occult blood of mice in each group were observed every day, and the scores of each index were summed to obtain the disease activity index of each animal. After 6 days of completion of modeling and drug administration, the modeling reagents were withdrawn for a 1-day remission period, and the mice were sacrificed by dislocation after blood was taken via the posterior ophthalmic plexus. Colon tissue and spleen were measured for length or weighed, part of the colon was fixed in 4% paraformaldehyde, and all tissues and serum were stored at −80° C.

[4] = rat, plasma, oral, 20 mg/kg, intragastric 20 mg/kg, individual animals 4-6, read-out: Plasma drug concentrations in rats
[5] = rat, plasma, oral, 20 mg/kg, intragastric 20 mg/kg, mean, read-out: Plasma drug concentrations in rats
[6] = rat, plasma, po, 20 mg/kg, rats, intragastric 20 mg/kg, individual animals 4-6
[7] = rat, plasma, po, 20 mg/kg, rats, intragastric 20 mg/kg, mean
[8] = rats, intragastric 20 mg/kg, individual animals 4-6, listed as DC411151
[9] = rats, intravenous 2 mg/kg, individual animals 1-3, listed as DC411151, 2 mg/kg
[10] = high-dose group (10 mg/kg), gavage once a day, 4 weeks

Q: For CC(C)Oc1ccc(-c2nc(-c3ccc(CN4CC(C(=O)O)C4)c4ccccc34)no2)cc1C#N.Cl [Compound A1, 1-((4-(5-(3-cyano-4-isopropoxyphenyl)-1,2,4-oxadiazol-3-yl)naphthalen-1-yl)methyl) azetidine-3-carboxylic acid hydrochloric acid], which concentration at 0.5 h ([1]; rat, plasma, oral, 20 mg/kg, intragastric 20 mg/kg, 0.5 h, mean, read-out: Plasma drug concentrations in rats) is on record?
A: Its concentration at 0.5 h is 2430 ng/mL.

Q: What about the concentration at 1 h [1, 4] of the same compound?
A: Its concentration at 1 h is 2560 ng/mL.

Q: What about the concentration at 1 h [1, 5] of the same compound?
A: Its concentration at 1 h is 2570 ng/mL.

Q: And the concentration at 2 h [1, 4]?
A: Its concentration at 2 h is 2290 ng/mL.

Q: What about the concentration at 2 h [1, 5] of the same compound?
A: The concentration at 2 h was 1890 ng/mL.

Q: What about the concentration at 4 h [1, 4] of the same compound?
A: The concentration at 4 h was 884 ng/mL.

Q: What about the concentration at 4 h [1, 5] of the same compound?
A: The concentration at 4 h was 787 ng/mL.

Q: What about the concentration at 6 h [1, 4] of the same compound?
A: The concentration at 6 h was 322 ng/mL.

Q: What about the concentration at 6 h [1, 5] of the same compound?
A: The concentration at 6 h was 320 ng/mL.

Q: What about the concentration at 8 h [1, 4] of the same compound?
A: The concentration at 8 h was 65.1 ng/mL.

Q: What about the concentration at 8 h [1, 5] of the same compound?
A: Its concentration at 8 h is 62 ng/mL.

Q: What about the concentration at 24 h [1, 4] of the same compound?
A: Its concentration at 24 h is 4.33 ng/mL.

Q: And the concentration at 24 h [1, 5]?
A: The concentration at 24 h was 3.25 ng/mL.

Q: And the bioavailability ([1]; rat, plasma, oral, rats, 20 mg/kg by gavage vs 2 mg/kg intravenous, read-out: absolute bioavailability)?
A: The bioavailability was 22.8%.

Q: What about the Tmax ([1]; rat, plasma, po, 20 mg/kg, rats, 20 mg/kg by gavage, range over animals, read-out: peak time Tmax) of the same compound?
A: Its Tmax is 0.5 to 1 h.

Q: And the AUC(0-inf) [1, 6]?
A: Its AUC(0-inf) is 9600 ng·h/mL.

Q: And the half-life [1, 6]?
A: The half-life was 2.45 h.

Q: What about the AUC0-t ([1]; rat, plasma, po, 20 mg/kg, rats, intragastric 20 mg/kg, individual animals 4-6, read-out: AUC0-t) of the same compound?
A: Its AUC0-t is 9590 ng·h/mL.

Q: What about the Cmax ([1]; rat, plasma, po, 20 mg/kg, rats, intragastric 20 mg/kg, individual animals 4-6, read-out: Cmax) of the same compound?
A: Its Cmax is 3070 ng/mL.

Q: And the MRT inf [1, 6]?
A: The MRT inf was 2.55 h.

Q: What about the Tmax ([1]; rat, plasma, po, 20 mg/kg, rats, intragastric 20 mg/kg, individual animals 4-6, read-out: Tmax) of the same compound?
A: The Tmax was 0.5 h.

Q: What about the AUC(0-inf) [1, 7] of the same compound?
A: The AUC(0-inf) was 8790 ng·h/mL.

Q: And the half-life [1, 7]?
A: Its half-life is 2.49 h.

Q: What about the MRT inf [1, 7] of the same compound?
A: The MRT inf was 2.72 h.

Q: What about the Tmax ([1]; rat, plasma, po, 20 mg/kg, rats, intragastric 20 mg/kg, mean, read-out: Tmax) of the same compound?
A: Its Tmax is 0.833 h.

Q: And the AUC0-t [1, 8]?
A: The AUC0-t was 10100 ng·h/mL and 6710 ng·h/mL.

Q: What about the “AUC0-∞” value [1, 8] of the same compound?
A: The value was 10100 ng·h/mL and 6720 ng·h/mL.

Q: What about the Cmax [1, 8] of the same compound?
A: The Cmax was 3130 ng/mL and 2070 ng/mL.

Q: And the “MRT0-∞” value [1, 8]?
A: The value was 2.62 h and 3.00 h.

Q: What about the t1/2 [1, 8] of the same compound?
A: Its t1/2 is 2.5 h and 2.51 h.

Q: What about the clearance classification ([1]; rats, intravenous 2 mg/kg) of the same compound?
A: The clearance classification was “low clearance drug”.

Q: What about the “plasma clearance as share of rat liver blood flow (about 55 mL/min/kg)” value ([1]; rats, intravenous 2 mg/kg) of the same compound?
A: Its value is 15.7%.

Q: And the AUC0-t [1, 9]?
A: The AUC0-t was 4030 ng·h/mL and 3960 ng·h/mL.

Q: And the “AUC0-∞” value [1, 9]?
A: Its value is 4040 ng·h/mL and 3980 ng·h/mL.

Q: What about the CL [1, 9] of the same compound?
A: Its CL is 8.26 mL/min/kg and 8.38 mL/min/kg.

Q: What about the “MRT0-∞” value [1, 9] of the same compound?
A: Its value is 1.52 h and 1.69 h.

Q: What about the Vss [1, 9] of the same compound?
A: Its Vss is 0.752 L/kg and 0.85 L/kg.

Q: What about the t1/2 [1, 9] of the same compound?
A: The t1/2 was 1.15 h and 3.67 h and 4.3 h.

Q: And the “hepatic lipid accumulation as well as inflammatory infiltration” value ([2]; FIG. 10 legend: at high/medium/low doses)?
A: Its value is “alleviated”.

Q: And the “hepatic lipid accumulation and inflammatory infiltration” value ([2]; H&E-stained liver sections, high-dose (10 mg/kg))?
A: The value was “effective in alleviating”.

Q: What about the body weight ([2]; gavage once a day, 4 weeks) of the same compound?
A: Its body weight is “without affecting”.

Q: And the “TG accumulation in the liver” value ([2]; high-dose group (10 mg/kg))?
A: The value was “significantly alleviating”.

Q: And the “serum ALT levels” value [2, 10]?
A: The value was “significantly reduced”.

Q: What about the “serum AST levels” value [2, 10] of the same compound?
A: The value was “significantly reduced”.

Q: What about the “expression levels of fibrosis-related genes (Asma, Tgfb, Col1a1)” value ([2]; high/medium-dose (10/3 mg/kg)) of the same compound?
A: The value was “significantly downregulated; also recorded: downregulates”.

Q: And the “hydroxyproline levels in the liver” value ([2]; high/medium-dose (10/3 mg/kg), to different degrees)?
A: The value was “effective in alleviating; also recorded: alleviated”.

Q: And the “mRNA expression of liver inflammation-related genes (Tnfa, Il1b, Nlrp3, Ccl2)” value ([2]; high/medium/low doses (10/3/0.3 mg/kg), to different degrees)?
A: Its value is “significantly downregulated”.

Q: And the “impaired crypt and inflammatory infiltration in colon sites” value ([3]; H&E-stained colon sections, high/medium doses (3/0.3 mg/kg))?
A: Its value is “effectively improve”.

Q: And the “overall effect in the IBD model” value ([3]; concluding statement)?
A: The value was “significant anti-inflammatory as well as pathological ameliorating effects”.

Q: And the “weight of the spleen” value ([3]; high/medium/low doses)?
A: The value was “without affecting”.

Q: What about the “disease process (weight change, stool consistency, rectal bleeding, disease activity index)” value ([3]; high/medium/low doses (3/0.3/0.03 mg/kg), gavage once a day, to different degrees) of the same compound?
A: Its value is “effective in alleviating; also recorded: alleviated”.

Q: What about the “shorten of colon length” value ([3]; high/medium/low doses (3/0.3/0.03 mg/kg), to different degrees) of the same compound?
A: Its value is “effective in alleviating”.
